Assay results taken from patent US6660752B2, “2,6-Substituted chroman derivatives useful as beta-3 adrenoreceptor agonists” (Bayer Pharmaceuticals Corporation, priority 2001, dated 2003).
pEC50: −log10 of the molar value.

molecular target: T1, human beta-3-adrenergic receptor (Homo sapiens, UniProt P13945); assay: cAMP production (beta-3 agonist activity) in CHO cells stably expressing human beta-3-adrenergic receptor, cAMP SPA; format: cell-based; settings: CHO cells expressing full-length human beta-3-adrenergic receptor, 30 min incubation, 10 μM to 3 nM, read-out: Beta-3 Agonistic Activity: Compounds with EC50 values ≦1 μM
T1 construct: stably express full-length human beta-3-adrenergic receptor; expressed in transfected cells; host or cells: Chinese hamster ovary (CHO) cells
Protocol: Chinese hamster ovary (CHO) cells that stably express full-length human beta-3-adrenergic receptor (Granneman et al., Mol. Pharmacol. 44:264-270, 1993) can be used in the following procedure. The cell line is grown in 90% F12 nutrient mixture (HAM), 10% fetal bovine serum, 100 units/ml penicillin G sodium, […] streptomycin sulfate, and 2 mM L-glutamine at 37° C. in 95% air and 5% CO2. The transfected cell line is maintained with G-418 (800 μg/ml).
To test the agonist activity, cells are exposed to test compound and then assayed for cAMP production. CHO cells (100 μl) are plated at 5×10^4 cells/well of a 96-well plate (Costar, Cambridge, Mass.) to achieve 70% confluency the next day. After overnight incubation at 37° C., media is removed and the cells are treated for 30 minutes at 37° C. with KRP buffer (120 mM NaCl, 5.1 mM KCl, 0.6 mM MgSO4.7H2O, 0.8 mM CaCl2.H2O, […] phosphate buffer, […] Hepes pH 7.4)+[…] IBMX ([…]), +1% DMSO, +/− test compounds ([…]). Test compounds are assayed from 10 μM to 3 nM with 3-fold serial dilutions. The control agonist, isoproterenol (10 mM stock in 1.1 mM ascorbate), is assayed by 3-fold dilution beginning at 1 μM. After a 30-minute incubation with the test compounds, the buffer/compound mixture is removed. The cells are lysed and cAMP levels are measured using the cAMP SPA screening assay system (Amersham, Arlington Heights, Ill.). The cAMP values are then plotted to determine the EC50 of each compound tested.

T1 sequence (P13945 whole entry): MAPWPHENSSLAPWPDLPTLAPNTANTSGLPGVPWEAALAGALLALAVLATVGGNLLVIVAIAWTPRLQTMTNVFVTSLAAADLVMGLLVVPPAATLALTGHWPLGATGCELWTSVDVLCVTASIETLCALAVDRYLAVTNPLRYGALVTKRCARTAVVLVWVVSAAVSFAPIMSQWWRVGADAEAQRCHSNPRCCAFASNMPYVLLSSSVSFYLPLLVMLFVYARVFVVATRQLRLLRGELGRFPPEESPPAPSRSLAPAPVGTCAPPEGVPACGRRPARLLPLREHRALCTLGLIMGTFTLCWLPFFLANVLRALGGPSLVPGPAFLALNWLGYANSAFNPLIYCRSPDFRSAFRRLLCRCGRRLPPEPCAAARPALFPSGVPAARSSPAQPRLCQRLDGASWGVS

pEC50, ≥ 6.00:
O=S(=O)(Nc1cccnc1)c1ccc(-c2ccc3c(c2)CC[C@H](CNC[C@H](O)c2cccnc2)O3)cc1 [Example 253, 4-[(2R)-2-({[(2R)-2-hydroxy-2-(3-pyridinyl)ethyl]amino}methyl)-3,4-dihydro-2H-chromen-6-yl]-N-(3-pyridinyl)benzenesulfonamide]
O=S(=O)(Nc1ccccn1)c1cccc(-c2ccc3c(c2)CC[C@H](CNC[C@H](O)c2cccnc2)O3)c1 [Example 254]
O=C1CCc2cc(NS(=O)(=O)c3cccc(-c4ccc5c(c4)CC[C@H](CNC[C@H](O)c4cccnc4)O5)c3)ccc21 [Example 255]
N#Cc1ccc(NS(=O)(=O)c2ccc(-c3ccc4c(c3)CC[C@H](CNC[C@H](O)c3cccnc3)O4)cc2)cc1 [Example 256]
N#Cc1ccc(NS(=O)(=O)c2cccc(-c3ccc4c(c3)CC[C@H](CNC[C@H](O)c3cccnc3)O4)c2)cc1 [Example 257]
O=C1CCc2cc(NS(=O)(=O)c3ccc(-c4ccc5c(c4)CC[C@H](CNC[C@H](O)c4cccnc4)O5)cc3)ccc21 [Example 258]
N#Cc1cc([N+](=O)[O-])ccc1NS(=O)(=O)c1cccc(-c2ccc3c(c2)CC[C@H](CNC[C@H](O)c2cccnc2)O3)c1 [Example 259, N-(2-cyano-4-nitrophenyl)-3-[(2R)-2-({[(2R)-2-hydroxy-2-(3-pyridinyl)ethyl]amino}methyl)-3,4-dihydro-2H-chromen-6-yl]benzenesulfonamide]
O=S(=O)(Nc1cccnc1)c1cccc(-c2ccc3c(c2)CC[C@H](CNC[C@H](O)c2cccnc2)O3)c1 [Example 260]
O=S(=O)(Nc1ncccn1)c1cccc(-c2ccc3c(c2)CC[C@H](CNC[C@H](O)c2cccnc2)O3)c1 [Example 261, 3-[(2R)-2-({[(2R)-2-hydroxy-2-(3-pyridinyl)ethyl]amino}methyl)-3,4-dihydro-2H-chromen-6-yl]-N-(2-pyrimidinyl)benzenesulfonamide]
N#Cc1ccc(NS(=O)(=O)c2ccc(-c3ccc4c(c3)CC[C@H](CNC[C@H](O)c3cccnc3)O4)cc2OC(F)(F)F)cc1 [Example 262, N-(4-cyanophenyl)-4-[(2R)-2-({[(2R)-2-hydroxy-2-(3-pyridinyl)ethyl]amino}methyl)-3,4-dihydro-2H-chromen-6-yl]-2-(trifluoromethoxy)benzenesulfonamide]
CC(=O)c1ccc(NS(=O)(=O)c2ccc(-c3ccc4c(c3)CC[C@H](CNC[C@H](O)c3cccnc3)O4)cc2OC(F)(F)F)cc1 [Example 263]
CC(=O)c1ccc(NS(=O)(=O)c2ccc(-c3ccc4c(c3)CC[C@H](CNC[C@H](O)c3cccnc3)O4)cc2)cc1 [Example 264]
O=S(=O)(Nc1nccs1)c1ccc(-c2ccc3c(c2)CC[C@H](CNC[C@H](O)c2cccnc2)O3)cc1 [Example 265, 4-[(2R)-2-({[(2R)-2-hydroxy-2-(3-pyridinyl)ethyl]amino}methyl)-3,4-dihydro-2H-chromen-6-yl]-N-(1,3-thiazol-2-yl)benzenesulfonamide]
COc1ccc(-c2ccc3c(c2)CC[C@H](CNC[C@H](O)c2cccnc2)O3)cc1S(=O)(=O)Nc1nccs1 [Example 266]
COc1cc(OC)nc(NS(=O)(=O)c2ccc(-c3ccc4c(c3)CC[C@H](CNC[C@H](O)c3cccnc3)O4)cc2)n1 [Example 267]
Cc1ccnc(NS(=O)(=O)c2ccc(-c3ccc4c(c3)CC[C@H](CNC[C@H](O)c3cccnc3)O4)cc2)n1 [Example 268, 4-[(2R)-2-({[(2R)-2-hydroxy-2-(3-pyridinyl)ethyl]amino}methyl)-3,4-dihydro-2H-chromen-6-yl]-N-(4-methyl-2-pyrimidinyl)benzenesulfonamide]
COc1ccc(-c2ccc3c(c2)CC[C@H](CNC[C@H](O)c2cccnc2)O3)cc1S(=O)(=O)Nc1nccc(C)n1 [Example 269]
COc1cc(OC)nc(NS(=O)(=O)c2cc(-c3ccc4c(c3)CC[C@H](CNC[C@H](O)c3cccnc3)O4)ccc2OC)n1 [Example 270]
COc1cc(C)nc(NS(=O)(=O)c2cc(-c3ccc4c(c3)CC[C@H](CNC[C@H](O)c3cccnc3)O4)ccc2OC)n1 [Example 271]
COc1ccc(-c2ccc3c(c2)CC[C@H](CNC[C@H](O)c2cccnc2)O3)cc1S(=O)(=O)Nc1ncccn1 [Example 272]
COc1cc(C)nc(NS(=O)(=O)c2ccc(-c3ccc4c(c3)CC[C@H](CNC[C@H](O)c3cccnc3)O4)cc2)n1 [Example 273, 4-[(2R)-2-({[(2R)-2-hydroxy-2-(3-pyridinyl)ethyl]amino}methyl)-3,4-dihydro-2H-chromen-6-yl]-N-(4-methoxy-6-methyl-2-pyrimidinyl)benzenesulfonamide]
COc1cc(OC)nc(NS(=O)(=O)c2ccc(-c3ccc4c(c3)CC[C@H](CNC[C@H](O)c3cccnc3)O4)cc2OC(F)(F)F)n1 [Example 274, N-(4,6-dimethoxy-2-pyrimidinyl)-4-[(2R)-2-({[(2R)-2-hydroxy-2-(3-pyridinyl)ethyl]amino}methyl)-3,4-dihydro-2H-chromen-6-yl]-2-(trifluoromethoxy)benzenesulfonamide]
COc1cc(C)nc(NS(=O)(=O)c2ccc(-c3ccc4c(c3)CC[C@H](CNC[C@H](O)c3cccnc3)O4)cc2OC(F)(F)F)n1 [Example 275, 4-[(2R)-2-({[(2R)-2-hydroxy-2-(3-pyridinyl)ethyl]amino}methyl)-3,4-dihydro-2H-chromen-6-yl]-N-(4-methoxy-6-methyl-2-pyrimidinyl)-2-(trifluoromethoxy)benzenesulfonamide]
O=S(=O)(Nc1nc2ccccc2s1)c1ccc(-c2ccc3c(c2)CCC(CNC[C@H](O)c2cccnc2)O3)cc1 (stereo partly shown) [Example 276]
COc1ccc(-c2ccc3c(c2)CCC(CNC[C@H](O)c2cccnc2)O3)cc1S(=O)(=O)Nc1ccc(C#N)cc1 (stereo partly shown) [Example 277]
COc1ccc(-c2ccc3c(c2)CC[C@H](CNC[C@H](O)c2cccnc2)O3)cc1S(=O)(=O)Nc1ccc(C(C)=O)cc1 [Example 280]
O=C(CC(F)(F)F)NS(=O)(=O)c1ccc(-c2ccc3c(c2)CC[C@H](CNC[C@H](O)c2cccnc2)O3)cc1 [Example 284, 4-[(2R)-2-({[(2R)-2-hydroxy-2-(3-pyridinyl)ethyl]amino}methyl)-3,4-dihydro-2H-chromen-6-yl]-N-(3,3,3-trifluoropropanoyl)benzenesulfonamide]
O=C(NS(=O)(=O)c1ccc(-c2ccc3c(c2)CC[C@H](CNC[C@H](O)c2cccnc2)O3)cc1)C1CC1 [Example 285, N-(cyclopropylcarbonyl)-4-[(2R)-2-({[(2R)-2-hydroxy-2-(3-pyridinyl)ethyl]amino}methyl)-3,4-dihydro-2H-chromen-6-yl]benzenesulfonamide]
